For data set [1], the system named is sugar beet mutant line carrying W569L. The conditions noted are these: WO 2012/049268; cited from earlier work.
Data set [2] has as its system heterozygous BvALS_D371E mutants. It counts as in vivo, Beta vulgaris (sugar beet). The conditions noted are these: greenhouse, 1× recommended field application concentration, treated when first true leaves appeared, rated 14 days after treatment; growing of first pair of true leaves as indicator. From the text: (§1) The identified ALS mutants have been tested repeatedly in CONVISO® ONE treatments in concentrations used for field treatments as well as in treatment with the individual active ingredients of CONVISO® ONE, Foramsulfuron and Thiencarbazon-methyl, treatment with Pulsar® 40 (active ingredient: Imazamox), treatment with active ingredient Bispyribac, and treatment with Broadway® (active ingredients: Florasulam, Pyroxylam) (Table 1). All herbicide treatments has been conducted with amount corresponding to 1× recommended field application concentration: Offspring seed of both, a plant homozygous and heterozygous for BvALS_D371E mutation as well as the M0-background genotype were sown, cultivated in a greenhouse and transplanted to single pots after emergence. Herbicide treatments were performed when first true leaves appeared.
(§2) Tolerance ratings were taken 14 days after treatment. Growing of the first pair of true leaves was used as indicator for herbicide tolerance.

For data set [3], the system named is homozygous BvALS_D371E mutants. It counts as in vivo, Beta vulgaris (sugar beet). The conditions noted are these: greenhouse, 1× recommended field application concentration, treated when first true leaves appeared, rated 14 days after treatment; growing of first pair of true leaves as indicator.
Description: as §1, §2

Structures are written as SMILES.

Consider `COC(=O)c1csc(C)c1S(=O)(=O)NC(=O)n1nc(OC)n(C)c1=O` [thiencarbazone-methyl], for which, in data set [1], the “herbicide tolerance of W569L mutant line” value is reported as “tolerant”. Moreover, the “Herbicide tolerance, Heterozygous mutants” value in data set [2] was “tolerant”. For the same compound, the “Herbicide tolerance, Homozygous mutants” value in data set [3] is “Tolerant”.

As for `COc1cc(OC)nc(Oc2cccc(Oc3nc(OC)cc(OC)n3)c2C(=O)O)n1` [Bispyribac], in data set [2], the “Herbicide tolerance, Heterozygous mutants” value is reported as “tolerant”. The “Herbicide tolerance, Homozygous mutants” value in data set [3] was “Tolerant”.

With `COc1cc(OC)nc(NC(=O)NS(=O)(=O)c2cc(NC=O)ccc2C(=O)N(C)C)n1` [foramsulfuron], the “herbicide tolerance of W569L mutant line” value in data set [1] is on record as “tolerant”. Moreover, the “Herbicide tolerance, Heterozygous mutants” value in data set [2] is given as “tolerant”. Also, the “Herbicide tolerance, Homozygous mutants” value in data set [3] is given as “Tolerant”.

The values above are taken from patent publication US20240401073A1, “ALS INHIBITOR HERBICIDE TOLERANT BETA VULGARIS MUTANTS” (KWS SAAT SE & Co. KGaA, priority 2021, published 2024).
